Experimental data published in ChEMBL document CHEMBL1129390, “Synthesis and solution conformation of cyclo[RGDRGD]: a cyclic peptide with selectivity for the alpha V beta 3 receptor” (J Med Chem, 1996).
pIC50: −log10 of the molar value. Square brackets hold non-standard residues; d marks the D form. Peptide text beside a SMILES is read from it. NMeR = CN[C@@H](CCCNC(=N)N)C(=O)O; 3Amb = NCc1cccc(C(=O)O)c1; dAbu = CC[C@@H](N)C(=O)O

What follows are molecules tested against Integrin alpha-V/beta-3 (Homo sapiens, UniProt P05106+P06756) (assay: Inhibition of alphaV-beta3 interaction with vitronectin).
Assay type: protein-complex assay

Integrin alpha-V/beta-3, sequence (P05106 27-788 limits assumed): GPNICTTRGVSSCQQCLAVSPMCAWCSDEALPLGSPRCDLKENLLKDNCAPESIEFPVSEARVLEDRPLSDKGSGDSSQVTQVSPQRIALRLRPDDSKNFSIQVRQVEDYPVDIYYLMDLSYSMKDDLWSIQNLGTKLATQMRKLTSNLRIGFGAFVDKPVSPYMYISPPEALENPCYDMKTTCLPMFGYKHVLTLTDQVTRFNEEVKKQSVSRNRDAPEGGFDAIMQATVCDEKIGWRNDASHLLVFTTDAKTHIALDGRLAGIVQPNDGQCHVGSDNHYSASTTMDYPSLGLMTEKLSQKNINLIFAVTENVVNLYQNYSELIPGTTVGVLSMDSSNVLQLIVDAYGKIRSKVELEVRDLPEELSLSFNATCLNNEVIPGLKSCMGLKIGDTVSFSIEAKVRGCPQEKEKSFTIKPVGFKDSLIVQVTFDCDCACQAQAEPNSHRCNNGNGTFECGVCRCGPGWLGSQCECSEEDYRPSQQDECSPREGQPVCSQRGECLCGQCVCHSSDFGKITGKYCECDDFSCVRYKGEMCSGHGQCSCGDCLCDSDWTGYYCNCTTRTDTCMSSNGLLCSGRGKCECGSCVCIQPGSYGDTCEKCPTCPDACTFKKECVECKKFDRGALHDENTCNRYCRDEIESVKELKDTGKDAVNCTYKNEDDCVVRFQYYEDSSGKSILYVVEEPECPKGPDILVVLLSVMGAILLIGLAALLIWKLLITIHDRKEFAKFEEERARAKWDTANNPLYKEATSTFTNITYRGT
Integrin alpha-V/beta-3, sequence (P06756 31-889 limits assumed): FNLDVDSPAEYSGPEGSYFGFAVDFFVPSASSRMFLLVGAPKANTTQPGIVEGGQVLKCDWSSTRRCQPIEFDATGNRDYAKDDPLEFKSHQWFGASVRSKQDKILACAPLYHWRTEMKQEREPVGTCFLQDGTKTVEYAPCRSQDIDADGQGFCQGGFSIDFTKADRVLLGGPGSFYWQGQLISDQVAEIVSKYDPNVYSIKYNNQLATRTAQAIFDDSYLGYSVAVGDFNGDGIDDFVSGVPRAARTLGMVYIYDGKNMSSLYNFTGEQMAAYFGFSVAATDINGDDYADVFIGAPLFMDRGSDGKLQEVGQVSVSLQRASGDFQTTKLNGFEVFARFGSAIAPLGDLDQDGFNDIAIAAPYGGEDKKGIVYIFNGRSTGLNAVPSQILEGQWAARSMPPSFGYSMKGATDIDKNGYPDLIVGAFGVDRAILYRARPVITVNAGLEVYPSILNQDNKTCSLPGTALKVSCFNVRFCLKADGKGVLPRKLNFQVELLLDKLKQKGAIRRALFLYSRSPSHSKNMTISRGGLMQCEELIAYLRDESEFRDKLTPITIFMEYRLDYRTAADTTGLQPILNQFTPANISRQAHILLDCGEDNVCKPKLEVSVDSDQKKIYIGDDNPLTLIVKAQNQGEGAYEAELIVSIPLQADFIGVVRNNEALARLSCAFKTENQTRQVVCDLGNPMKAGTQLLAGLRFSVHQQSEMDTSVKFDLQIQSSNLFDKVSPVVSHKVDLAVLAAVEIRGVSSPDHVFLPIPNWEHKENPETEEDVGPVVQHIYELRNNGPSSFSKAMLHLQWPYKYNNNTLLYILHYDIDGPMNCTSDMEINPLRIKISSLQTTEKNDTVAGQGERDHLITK
Integrin alpha-V/beta-3, sequence (P06756 891-1048 limits assumed): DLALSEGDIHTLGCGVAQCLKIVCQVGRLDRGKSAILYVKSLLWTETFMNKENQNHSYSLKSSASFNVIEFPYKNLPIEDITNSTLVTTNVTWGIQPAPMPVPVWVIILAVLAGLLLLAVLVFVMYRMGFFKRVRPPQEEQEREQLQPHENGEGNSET

pIC50 | Compound
7.15 | NC(N)=NCCC[C@H](NC(=O)[C@H](CC(=O)O)NC(=O)CNC(=O)[C@@H](N)CCCN=C(N)N)C(=O)NCC(=O)N[C@@H](CC(=O)O)C(=O)O (H-RGDRGD-OH)
6.85 | N=C(N)NCCC[C@@H]1NC(=O)[C@H](CC(=O)O)NC(=O)CNC(=O)[C@H](CCCNC(=N)N)NC(=O)[C@H](CC(=O)O)NC(=O)CNC1=O
< 5.00 | CC[C@H]1NC(=O)c2cccc(c2)CNC(=O)[C@H](CC(=O)O)NC(=O)CNC(=O)[C@H](CCCN=C(N)N)N(C)C1=O (cyclo([NMeR]GD[3Amb][dAbu]))
6.49 | N=C(N)NCCC[C@@H]1NC(=O)[C@H](CC(=O)O)NC(=O)CNC(=O)[C@H](CCCNC(=N)N)NC(=O)[C@@H](CC(=O)O)NC(=O)CNC1=O
